Experimental data published in PubChem BioAssay (NCI).
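The compound was tested at five concentrations on cells cultured in 96-well plates, with a 48-hour exposure period. The concentration for 50% growth inhibition is given as GI50. TGI: concentration producing complete growth inhibition.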

Tests used:
Experiment in all cases: NCI-60 cell line screen, 48 h
BT-549 breast = system: BT-549 breast
CAKI-1 renal = system: CAKI-1 renal
COLO 205 colon = system: COLO 205 colon
HCC-2998 colon = system: HCC-2998 colon
HCT-15 colon = system: HCT-15 colon
HL-60(TB) leukemia = system: HL-60(TB) leukemia
LOX IMVI melanoma = system: LOX IMVI melanoma
OVCAR-5 ovarian = system: OVCAR-5 ovarian
PC-3 prostate = system: PC-3 prostate
SK-MEL-28 melanoma = system: SK-MEL-28 melanoma

Row | Structure (SMILES) | GI50 (BT-549 breast) | TGI (BT-549 breast) | GI50 (CAKI-1 renal) | TGI (CAKI-1 renal) | GI50 (COLO 205 colon) | TGI (COLO 205 colon) | GI50 (HCC-2998 colon) | TGI (HCC-2998 colon) | GI50 (HCT-15 colon) | TGI (HCT-15 colon) | GI50 (HL-60(TB) leukemia) | TGI (HL-60(TB) leukemia) | GI50 (LOX IMVI melanoma) | TGI (LOX IMVI melanoma) | GI50 (OVCAR-5 ovarian) | TGI (OVCAR-5 ovarian) | GI50 (PC-3 prostate) | TGI (PC-3 prostate) | GI50 (SK-MEL-28 melanoma) | TGI (SK-MEL-28 melanoma)
1 | CS(=O)(=O)c1ccc(Oc2cc(F)cc(C#N)c2)c2c1[C@H](O)[C@H](F)[C@@H]2F | > 100 µM | > 100 µM | > 100 µM | > 100 µM | > 100 µM | > 100 µM | > 100 µM | > 100 µM | > 100 µM | > 100 µM | > 100 µM | > 100 µM | > 100 µM | > 100 µM | > 100 µM | > 100 µM | > 100 µM | > 100 µM | > 100 µM | > 100 µM
2 | CNc1ccccc1C(=O)N/N=C/C=C/c1ccccc1 | 53.2 µM | > 100 µM | 2.79 µM | > 100 µM | 0.671 µM | 10.3 µM | 8.82 µM | 36.3 µM | 0.457 µM | > 74.1 µM | 0.566 µM | 18.5 µM | 1.34 µM | > 100 µM | 6.64 µM | > 76.5 µM | 2.56 µM | > 100 µM | 6.88 µM | > 100 µM
3 | CC1=C(C)C(=O)c2c(c(C(=O)c3ccccc3)c3nc4ccccc4n3c2C)C1=O | 54.7 µM | > 100 µM | > 100 µM | > 100 µM | > 100 µM | > 100 µM | > 100 µM | > 100 µM | > 100 µM | > 100 µM | > 100 µM | > 100 µM | 69.9 µM | > 100 µM | > 100 µM | > 100 µM | > 100 µM | > 100 µM | > 100 µM | > 100 µM
4 | O=[N+]([O-])c1ccc(N2CCN(Cc3ccccc3)CC2)c2c1no[n+]2[O-] | 1.93 µM | 3.78 µM | 1.42 µM | 3.48 µM | 1.48 µM | 3.04 µM | 1.78 µM | 3.33 µM | 0.805 µM | 2.46 µM | 0.473 µM | 2.99 µM | 0.558 µM | 1.67 µM | 4.15 µM | 8.77 µM | 1.25 µM | 2.7 µM | 3.56 µM | 9.07 µM
5 | O=C1c2ccccc2-c2c1c1ccccc1c(=O)n2CCCNCCCn1c2c(c3ccccc3c1=O)C(=O)c1ccccc1-2 | 8.42 µM | 19.7 µM | 8.12 µM | 17.5 µM | 10.6 µM | > 31.1 µM | 6.82 µM | 17.7 µM | 1.03 µM | 3.81 µM | > 50 µM | > 50 µM | 1.49 µM | 8.25 µM | 3.04 µM | 6.08 µM | 2.08 µM | 5.52 µM | 11 µM | > 36.9 µM
6 | O=C1OC(c2ccco2)=N/C1=C\c1ccc(Cl)c(Cl)c1 |  | > 100 µM |  | > 100 µM |  | > 100 µM |  | > 100 µM |  | > 100 µM |  | > 100 µM |  | > 100 µM |  | > 100 µM |  | > 100 µM |  | > 100 µM
7 | Cc1ccc(NC(c2ccccc2)c2ccc3cccnc3c2O)cc1 (stereo not given) |  | 15.3 µM |  | 16.4 µM |  | 16.5 µM |  | > 100 µM |  | 14.4 µM |  | 11.7 µM |  | 16.4 µM |  | 22.2 µM |  | 14.3 µM |  | 33.3 µM
8 | CC(C)(C)[OH+][O-].[O-]c1ccc(Cl)cc1C=Nc1ccc(Cl)cc1[O-].[O]=[V] | 13.2 µM | 28.6 µM | 15.1 µM | 52.5 µM | 19.3 µM | 37.6 µM | 11.2 µM | 25.7 µM | 21.8 µM | > 100 µM | 24.7 µM | > 100 µM | 5.9 µM | 25.9 µM | 18.4 µM | 47.3 µM | 26.1 µM | > 100 µM | 19.2 µM | 53.8 µM
9 | COc1ccc(C(=O)Cn2c(C(=O)c3ccc(OC)cc3)nc3ccccc32)cc1 | 3.52 µM | > 100 µM | 1.94 µM | > 100 µM | 2.38 µM | 8.21 µM | 5.64 µM | > 100 µM | 1.21 µM | > 100 µM | 0.436 µM | 10.8 µM | 6.42 µM | > 100 µM | > 25.1 µM | > 100 µM | 2.43 µM | > 100 µM | 3 µM | > 100 µM
10 | CC/C=C\C[C@H](O)C/C=C1/C(=O)C=C[C@@H]1C/C=C\CCCC(=O)NC(C)C | 2.45 µM | 6.13 µM | 2.08 µM | 4.39 µM | 2.51 µM | 5.44 µM | 1.87 µM | 3.42 µM | 2.02 µM | 4.92 µM | 2.67 µM | 9.1 µM | 1.06 µM | 2.5 µM | 4.55 µM | 16.6 µM | 2.52 µM | 6.24 µM | 2.14 µM | 4.98 µM
11 | N#CC1=C(N)Oc2cc3c(cc2C1c1cccs1)OCO3 (stereo not given) | 0.882 µM | 37.6 µM | 0.542 µM | > 100 µM | 0.366 µM | 1.66 µM | 0.775 µM | 11.6 µM | 0.486 µM | > 100 µM | 0.247 µM | 0.899 µM | 0.679 µM | > 61.3 µM | 2.82 µM | > 85.4 µM | 1.16 µM | > 100 µM | 1.12 µM | > 100 µM
12 | COc1ccc(CN2C(=O)/C(=C\c3cc(OC)c(OC)c(OC)c3)c3cc(OC)ccc32)cc1 | 3.34 µM | 20.4 µM | 2.95 µM | > 22.2 µM | 2.59 µM | 6.51 µM | 2.05 µM | 3.85 µM | 1.66 µM | 3.42 µM | 3.28 µM | > 28.5 µM | 1.35 µM | 2.67 µM | 2.47 µM | 5.51 µM | 3.35 µM | 19.5 µM | 1.72 µM | 3.3 µM
